The values below come from patent US20210300940A1 (Merck Patent GmbH, priority 2018, published 2021).

Where a name gives a salt, the structure may show the parent alone.

For one assay, the target named is T1, TLR7 (Homo sapiens, UniProt Q9NYK1).
T1 construct: expressed in transfected cells; host or cells: HEK/293 cells carrying TLR7 and an NF-kB luciferase reporter
T1 sequence (Q9NYK1 27-1049): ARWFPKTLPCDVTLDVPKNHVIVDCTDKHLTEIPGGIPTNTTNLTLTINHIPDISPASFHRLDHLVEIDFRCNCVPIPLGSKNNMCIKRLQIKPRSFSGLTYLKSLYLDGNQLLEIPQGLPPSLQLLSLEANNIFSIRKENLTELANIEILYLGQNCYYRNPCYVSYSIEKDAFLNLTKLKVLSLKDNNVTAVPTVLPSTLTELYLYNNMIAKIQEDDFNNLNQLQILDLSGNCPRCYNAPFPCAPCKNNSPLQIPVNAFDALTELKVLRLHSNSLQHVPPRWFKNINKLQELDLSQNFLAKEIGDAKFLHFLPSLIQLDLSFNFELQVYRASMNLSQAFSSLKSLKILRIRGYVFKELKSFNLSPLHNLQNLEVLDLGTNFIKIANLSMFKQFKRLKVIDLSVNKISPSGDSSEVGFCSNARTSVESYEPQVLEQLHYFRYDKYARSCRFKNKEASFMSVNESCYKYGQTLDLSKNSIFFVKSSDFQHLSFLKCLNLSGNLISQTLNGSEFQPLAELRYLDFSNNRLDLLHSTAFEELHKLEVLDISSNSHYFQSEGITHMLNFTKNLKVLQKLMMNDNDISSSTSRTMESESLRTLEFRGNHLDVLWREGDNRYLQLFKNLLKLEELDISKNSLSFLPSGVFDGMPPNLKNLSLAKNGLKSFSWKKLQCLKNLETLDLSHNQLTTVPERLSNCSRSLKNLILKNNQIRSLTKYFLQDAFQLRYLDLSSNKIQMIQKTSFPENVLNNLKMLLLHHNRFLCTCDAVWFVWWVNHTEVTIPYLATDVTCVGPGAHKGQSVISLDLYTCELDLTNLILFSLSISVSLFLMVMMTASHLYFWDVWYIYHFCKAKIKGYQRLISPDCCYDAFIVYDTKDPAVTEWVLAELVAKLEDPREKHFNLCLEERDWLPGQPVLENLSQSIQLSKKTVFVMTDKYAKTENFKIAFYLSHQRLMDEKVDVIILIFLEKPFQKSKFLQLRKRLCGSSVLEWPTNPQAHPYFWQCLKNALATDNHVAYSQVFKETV
The experiment in a line: HEK/293 TLR7 Cell Assay. It counts as cell-based. Conditions: TLR7/NFKb HEK cells, R848 agonist 10 uM final concentration, Steady-Glo readout; read-out: TLR7 potency. In short, it runs like this:
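TLR7/NF-κB reporter HEK293 cells, 5000/well, cultured 24 h, then preincubated 30 min with compound before R848 agonist (10 uM final). After 5 h stimulation, Steady-Glo luciferase luminescence read.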

A further assay deals with T2, TLR8 (Homo sapiens, UniProt Q9NR97).
T2 construct: expressed in transfected cells; host or cells: HEK/293 reporter cells (NF-kB luciferase)
T2 sequence (Q9NR97 27-1041): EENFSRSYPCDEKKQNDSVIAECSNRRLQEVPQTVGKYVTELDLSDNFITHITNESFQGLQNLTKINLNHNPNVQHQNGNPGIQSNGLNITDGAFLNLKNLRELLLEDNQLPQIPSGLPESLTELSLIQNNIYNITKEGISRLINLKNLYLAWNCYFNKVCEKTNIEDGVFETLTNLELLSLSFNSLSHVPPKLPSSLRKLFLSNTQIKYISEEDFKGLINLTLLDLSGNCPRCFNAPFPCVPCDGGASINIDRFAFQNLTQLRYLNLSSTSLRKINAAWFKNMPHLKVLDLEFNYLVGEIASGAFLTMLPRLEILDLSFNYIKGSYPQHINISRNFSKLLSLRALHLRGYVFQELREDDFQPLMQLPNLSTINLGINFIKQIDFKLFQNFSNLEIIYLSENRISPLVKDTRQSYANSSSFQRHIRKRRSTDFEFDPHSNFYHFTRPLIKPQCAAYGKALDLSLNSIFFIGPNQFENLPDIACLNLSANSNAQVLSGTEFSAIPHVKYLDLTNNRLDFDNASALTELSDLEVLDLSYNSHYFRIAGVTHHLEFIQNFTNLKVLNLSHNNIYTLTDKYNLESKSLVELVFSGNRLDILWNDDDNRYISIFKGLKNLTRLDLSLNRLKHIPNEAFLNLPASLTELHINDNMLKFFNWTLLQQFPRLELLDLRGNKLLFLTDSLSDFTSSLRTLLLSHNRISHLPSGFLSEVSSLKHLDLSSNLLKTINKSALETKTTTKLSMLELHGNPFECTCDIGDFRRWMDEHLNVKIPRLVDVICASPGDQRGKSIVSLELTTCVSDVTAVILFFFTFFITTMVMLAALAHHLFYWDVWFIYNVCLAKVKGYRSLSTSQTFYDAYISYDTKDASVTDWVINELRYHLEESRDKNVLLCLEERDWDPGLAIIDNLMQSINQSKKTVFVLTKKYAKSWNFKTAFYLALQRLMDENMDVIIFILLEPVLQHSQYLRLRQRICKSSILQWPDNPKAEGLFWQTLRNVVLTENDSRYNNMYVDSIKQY
The experiment in a line: HEK/293 TLR8 Cell Assay. The format is cell-based. As to conditions: HEK cells, R848 agonist 30 uM final concentration, Steady-Glo readout; read-out: TLR8 potency.

With `Cc1c(F)cc(N2C[C@@H](C)C[C@@H](NC(=O)[C@H](N)CO)C2)c2cccnc12` [Example 135, (R)-2-Amino-N-[(3R,5S)-1-(7-fluoro-8-methyl-quinolin-5-yl)-5-methyl-piperidin-3-yl]-3-hydroxy-propionamide], the IC50 on TLR7 and at TLR8 was less than 75 nM in each case.

For `C[C@@H]1CN(c2ccc(C#N)c3nccnc23)C[C@H](C(=O)NC[C@@H](O)CO)O1` [Example 233, (2R,6R)-4-(8-Cyano-quinoxalin-5-yl)-6-methyl-morpholine-2-carboxylic acid ((R)-2,3-dihydroxy-propyl)-amide], the IC50 on TLR7 and at TLR8 was less than 75 nM each time.

For `Cc1c(F)cc(N2C[C@@H](C)C[C@@H](NC(=O)CC3(O)CCN(C)CC3)C2)c2cccnc12` [Example 69, N-[(3R,5S)-1-(7-fluoro-8-methylquinolin-5-yl)-5-methylpiperidin-3-yl]-2-(4-hydroxy-1-methylpiperidin-4-yl)acetamide], the IC50 at TLR7 and on TLR8 was less than 75 nM in each case.

Regarding `C[C@@H]1CN(c2ccc(C#N)c3nccnc23)C[C@H](C(=O)NCC2CCS(=O)(=O)C2)O1` (stereo partly drawn) [Example 257, (2R,6R)-4-(8-cyanoquinoxalin-5-yl)-N-[(1,1-dioxo-1λ^6-thiolan-3-yl)methyl]-6-methylmorpholine-2-carboxamide], the IC50 on TLR7 and on TLR8 was less than 75 nM throughout.

Turning to `C[C@H]1C[C@@H](NC(=O)CC2(O)CCN(C)CC2)CN(c2ccc(C(F)(F)F)c3ncccc23)C1` [Example 84, 2-(4-hydroxy-1-methylpiperidin-4-yl)-N-[(3R,5S)-5-methyl-1-[8-(trifluoromethyl)quinolin-5-yl]piperidin-3-yl]acetamide], the IC50 on TLR7 and at TLR8 was less than 75 nM throughout.

For `C[C@@H]1CN(c2cnc(C#N)c3ncccc23)C[C@H](C(=O)NCC2(F)CCN(C)CC2)O1` [Example 348, (2R,6R)-4-(8-Cyano-[1,7]naphthyridin-5-yl)-6-methyl-morpholine-2-carboxylic acid (4-fluoro-1-methyl-piperidin-4-ylmethyl)-amide], the IC50 on TLR7 is less than 75 nM; at TLR8, more than 150 nM.

On to `C[C@@H]1CN(c2ccc(C#N)c3nccnc23)C[C@H](C(=O)NCC2(F)CCNCC2)O1` [Example 290, (2R,6R)-4-(8-Cyano-quinoxalin-5-yl)-6-methyl-morpholine-2-carboxylic acid (4-fluoro-piperidin-4-ylmethyl)-amide], for which the IC50 at TLR7 and on TLR8 was less than 75 nM in each case.

Consider `C[C@@H](C(=O)N[C@@H]1C[C@H](C(F)(F)F)CN(c2ccc(C#N)c3nccnc23)C1)N1CCN(C)CC1` (single isomer, unassigned) [Example 99], for which the IC50 was 75 to 150 nM at TLR7 and less than 75 nM on TLR8.

With `C[C@@H]1CN(c2cnc(C#N)c3ncccc23)C[C@H](CNC(=O)[C@@]2(F)CCN(C)C2)O1` (single isomer, unassigned) [Example 334], the IC50 at TLR7 is more than 150 nM; at TLR8, less than 75 nM.

`C[C@@H](O)CNC(=O)[C@@H]1CN(c2ccc(C#N)c3nccnc23)C[C@H](C(F)(F)F)O1` (single isomer, unassigned) [Example 279]: the IC50 on TLR7 was 75 to 150 nM; on TLR8 it was more than 150 nM.

As to `N#Cc1ccc(N2C[C@@H](CN3CCC4(CC3)CC(=O)N4)O[C@@H](C(F)(F)F)C2)c2nccnc12` (single isomer, unassigned) [Example 364], the results for the IC50 on TLR7 and at TLR8 were less than 75 nM and more than 150 nM, respectively.

Take `Cc1ccc(N2C[C@@H](NC(=O)CC3CCN(C(C)C)CC3)CC(F)(F)C2)c2cccnc12` [Example 111, N—[(S)-5,5-Difluoro-1-(8-methyl-quinolin-5-yl)-piperidin-3-yl]-2-(1-isopropyl-piperidin-4-yl)-acetamide]: the IC50 at TLR7 and at TLR8 was more than 150 nM throughout.

With `C[C@@H]1CN(c2ccc(C#N)c3nccnc23)C[C@H](CSC2CNC2)O1` [Example 225, 8-[(2R,6R)-2-(Azetidin-3-ylsulfanylmethyl)-6-methyl-morpholin-4-yl]-quinoxaline-5-carbonitrile hydrochloride], the IC50 on TLR7 and at TLR8 was less than 75 nM in each case.

As to `C[C@@H]1CN(c2ccc(C#N)c3nccnc23)C[C@H](C(=O)NCC2CN(C)CCO2)O1` (stereo partly drawn) [Example 240, (2R,6R)-4-(8-Cyano-quinoxalin-5-yl)-6-methyl-morpholine-2-carboxylic acid (4-methyl-morpholin-2-ylmethyl)-amide], the IC50 on TLR7 and on TLR8 was less than 75 nM throughout.

For `C[C@@H]1CN(c2cnc(C#N)c3ncccc23)C[C@H](CN2CCC(N)C(F)(F)C2)O1` (stereo partly drawn) [Example 369, 5-[(2S,6R)-2-(4-Amino-3,3-difluoro-piperidin-1-ylmethyl)-6-methyl-morpholin-4-yl]-[1,7]naphthyridine-8-carbonitrile], the IC50 on TLR7 and on TLR8 was less than 75 nM in each case.

With `N#Cc1ccc(N2C[C@H](NC(=O)[C@@H]3CCCN3)C[C@H](C(F)(F)F)C2)c2nccnc12` [Example 124, (2S)—N-[(3R,5S)-1-(8-cyanoquinoxalin-5-yl)-5-(trifluoromethyl)piperidin-3-yl]pyrrolidine-2-carboxamide], the IC50 at TLR7 and at TLR8 was less than 75 nM throughout.

For the molecule `C[C@H](O)CNC(=O)[C@H]1CN(c2ccc(C#N)c3nccnc23)C[C@@H](C(F)(F)F)O1` (single isomer, unassigned) [Example 286], the IC50 at TLR7 and at TLR8 was more than 150 nM in each case.

Turning to `Cc1c(F)cc(N2C[C@@H](C)C[C@@H](NC(=O)NCCN(C)C)C2)c2cccnc12` [Example 145, 3-[2-(dimethylamino)ethyl]-1-[(3R,5S)-1-(7-fluoro-8-methylquinolin-5-yl)-5-methylpiperidin-3-yl]urea], the IC50 on TLR7 and at TLR8 was less than 75 nM throughout.

With `CN1CCC(F)(CNC(=O)[C@@H]2CN(c3cnc(C#N)c4ncccc34)C[C@H](C(F)(F)F)O2)CC1` (single isomer, unassigned) [Example 351], the IC50 at TLR7 and on TLR8 was less than 75 nM in each case.

Take `C[C@@H]1CN(c2ccc(C(F)(F)F)c3ncccc23)C[C@H](CN2CCN(C)CC2)O1` [Example 330, 5-[(2R,6S)-2-Methyl-6-(4-methyl-piperazin-1-ylmethyl)-morpholin-4-yl]-8-trifluoromethyl-quinoline]: the IC50 on TLR7 and on TLR8 was less than 75 nM each time.
